# Reference: article PMC5608352, “Formyl peptide derived lipopeptides disclose differences between the receptors in mouse and men and call the pepducin concept in question” (PLoS ONE, 2017)
# “Also recorded” adds a separate entry of the source. Residues, ends and D or L forms follow the SMILES beside them. *: point of attachment. Palmitoyl = CCCCCCCCCCCCCCCC(=O)*
# Assays:
# Assay type in all cases: cell-based
# [1] = tested on: FPR2; experiment: Inhibition of PSMα2-induced superoxide release, human neutrophils
# Excerpt: Human peripheral blood neutrophils were isolated from buffy coats from healthy blood donors using dextran sedimentation and Ficoll-Paque gradient centrifugation as described. The remaining erythrocytes were disrupted by hypotonic lysis and the neutrophils were washed twice, suspended in KRG and, stored on melting ice until use. This isolation process permits cells to be purified with minimal granule mobilization. The buffy coats were obtained from the blood bank at Sahlgrenska University Hospital. Ethics approval was not needed since the buffy coats were provided anonymously and could not be traced back to a specific individual. This is in line with Swedish legislation section code 4§ 3p SFS 2003:460 (Lag om etikprövning av forskning som avser människor).
# NADPH-oxidase activity was determined using an isoluminol and HRP-enhanced chemiluminescence (CL) system that allow for the determination of superoxide production. The CL activity was measured in a six-channel Biolumat LB 9505 apparatus (Berthold Co., Wildbad, Germany), using disposable 4-mL polypropylene tubes with 1 mL reaction mixture. […] The light emission was recorded continuously over time and presented as superoxide production (in arbitrary light units, cpm x10^-6) as a function of time (min). The activity before stimulus addition was recorded as basal line and this activity was not changed in vehicle control samples. […]
# [2] = molecular target: T1, Fpr2 (Mus musculus, UniProt O88536); experiment: Receptor preference in mouse neutrophils (Fpr2 versus Fpr1); conditions: conclusion from superoxide release, Fpr2^-/- cells, desensitization and inhibitors
# T1 construct: WT mouse neutrophils (5 x 10^4 cells) were pre-incubated without (solid line) or with mF2Pal16; endogenous in cells; host or cells: bone marrow neutrophils of C57BL/6 wild-type mice, TNF-alpha primed
# T1 sequence (O88536 1-351): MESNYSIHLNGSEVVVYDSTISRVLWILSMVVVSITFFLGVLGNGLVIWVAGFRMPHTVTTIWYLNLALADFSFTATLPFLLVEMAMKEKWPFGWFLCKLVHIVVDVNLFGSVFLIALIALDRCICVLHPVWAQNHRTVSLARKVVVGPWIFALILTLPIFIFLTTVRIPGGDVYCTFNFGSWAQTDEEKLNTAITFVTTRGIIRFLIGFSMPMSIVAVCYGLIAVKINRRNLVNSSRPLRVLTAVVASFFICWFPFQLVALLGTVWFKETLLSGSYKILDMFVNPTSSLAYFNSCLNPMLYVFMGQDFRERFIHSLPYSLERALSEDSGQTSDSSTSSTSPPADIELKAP
# Excerpt: C57BL/6 wild-type mice were purchased from Charles River Laboratories and Fpr2^−/− mice generated as described previously, were generously provided by Dr Ji Ming Wang, Frederick National Laboratory for Cancer Research, USA. Mice were kept under standard temperature and light conditions and fed laboratory chow and water ad libitum, at the Department of Rheumatology and Inflammation Research, University of Gothenburg. Sex matched WT and Fpr2^-/- animals (age 8–10 weeks) were used to isolated bone marrow derived neutrophils. The studies performed were approved by the Ethical Committee for Animal Experimentation, Göteborg, Sweden.
# Mice (8–12 weeks of age) were killed by cervical dislocation, the femurs and tibias were removed and freed of soft tissue attachments, and the extreme distal tip of each extremity was cut off. […] The cell number and population of bone marrow cells were determined by flow cytometry based on forward scatter (size) and side scatter (density) localization.
# NADPH-oxidase activity was determined using an isoluminol and HRP-enhanced chemiluminescence (CL) system that allow for the determination of superoxide production. The CL activity was measured in a six-channel Biolumat LB 9505 apparatus (Berthold Co., Wildbad, Germany), using disposable 4-mL polypropylene tubes with 1 mL reaction mixture. […]
# [3] = molecular target: T1, Fpr2; experiment: Inhibition of PSMα2-induced superoxide release, WT mouse neutrophils; conditions: mF2Pal16 500 nM, 5 min pre-incubation; PSMα2 10 nM
# Excerpt: (§1) Mice (8–12 weeks of age) were killed by cervical dislocation, the femurs and tibias were removed and freed of soft tissue attachments, and the extreme distal tip of each extremity was cut off. KRG without Ca^2+ and Mg^2+ (KRG-) was forced through the bone by using a 1-mL syringe with a 27-gauge needle. After dispersing cell clumps and removing the debris, the bone marrow granulocytes were isolated according to an earlier described procedure with some modifications. Briefly, a cell suspension in 2 mL of KRG- was laid on top of a three-layer Percoll gradient (1.095, 1.085, and 1.070 g/mL). The density of each Percoll solution was verified using density marker beads. […] The cell number and population of bone marrow cells were determined by flow cytometry based on forward scatter (size) and side scatter (density) localization.
# (§2) NADPH-oxidase activity was determined using an isoluminol and HRP-enhanced chemiluminescence (CL) system that allow for the determination of superoxide production. The CL activity was measured in a six-channel Biolumat LB 9505 apparatus (Berthold Co., Wildbad, Germany), using disposable 4-mL polypropylene tubes with 1 mL reaction mixture. […] The light emission was recorded continuously over time and presented as superoxide production (in arbitrary light units, cpm x10^-6) as a function of time (min). […]
# [4] = tested on: Fpr1; experiment: Inhibition of fMIFL-induced superoxide release, WT mouse neutrophils; conditions: fMIFL 10 nM; mF2Pal16 1 μM (inset) or 500 nM
# Excerpt: as §1, §2
# [5] = molecular target: T1, Fpr2; experiment: Inhibition of F2M2-induced superoxide release, WT mouse neutrophils; conditions: mF2Pal16 500 nM; F2M2 150 nM; three independent experiments
# Excerpt: as §1, §2
smiles,measurement,setting,value
CCCCCCCCCCCCCCCC(=O)N[C@@H](CCCCN)C(=O)N[C@H](C(=O)N[C@@H](CC(N)=O)C(=O)N[C@@H](CCCNC(=N)N)C(=O)N[C@@H](CCCNC(=N)N)C(=O)N[C@@H](CC(N)=O)C(=O)N[C@@H](CC(C)C)C(=O)N[C@H](C(=O)N[C@@H](CC(N)=O)C(=O)N[C@@H](CO)C(=O)N[C@@H](CO)C(=O)N[C@@H](CCCNC(=N)N)C(=O)N1CCC[C@H]1C(=O)N[C@@H](CC(C)C)C(=O)N[C@@H](CCCNC(=N)N)C(=O)N[C@H](C(=O)O)C(C)C)C(C)C)[C@@H](C)CC [mF2Pal16] (Palmitoyl-KINRRNLVNSSRPLRV-OH; C-terminus assumed),"effect on PSMα2 response, human neutrophils",[1],largely inhibited
same,receptor preference / modulation of Fpr2 (versus Fpr1) in mouse neutrophils,[2],inhibits the activity of Fpr2 in mouse neutrophils; also recorded: potent and selective inhibitor for Fpr2/FPR2; also recorded: targets this receptor
same,"inhibition of PSMα2 response, mouse neutrophils",[3],potently inhibited
same,"effect on fMIFL response, mouse neutrophils",[4],no effect
same,"effect on F2M2 response, mouse neutrophils",[5],inhibitory effect
